Measurements: US10405547B2, “Substituted cyclic amides as herbicides” (FMC Corporation, priority 2015, dated 2019)

Legend:
Format in all cases: in vivo
[1] = tested on: barnyardgrass (Echinochloa crus-galli); test: Test A postemergence, barnyardgrass; details: 0 to 100 scale (0 no effect, 100 complete control)
In short: (§1)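 Visual injury on a 0 to 100 scale, about 10 days post-spray in the greenhouse. Postemergence plants measured 2–10 cm at one to two leaves; preemergence pots received a directed soil spray. Soil was a loam–sand blend.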

[2] = tested on: foxtail, giant (Setaria faberii); test: Test A postemergence, giant foxtail; details: 0 to 100 scale (0 no effect, 100 complete control)
In short: as §1

kochia (Kochia scoparia) [3] = test: Test A preemergence, kochia; details: 0 to 100 scale (0 no effect, 100 complete control)
In short: as §1

[4] = tested on: ragweed (common ragweed, Ambrosia elatior); test: Test A postemergence, ragweed; details: 0 to 100 scale (0 no effect, 100 complete control)
In short: as §1

[5] = tested on: pigweed (Amaranthus retroflexus); test: Test A postemergence, pigweed; details: 0 to 100 scale (0 no effect, 100 complete control)
In short: as §1

[6] = tested on: wheat (Triticum aestivum); test: Test A postemergence, wheat; details: 0 to 100 scale (0 no effect, 100 complete control)
In short: as §1

[7] = tested on: barnyardgrass (Echinochloa crus-galli); test: Test A preemergence, barnyardgrass; details: 0 to 100 scale (0 no effect, 100 complete control)
In short: as §1

[8] = tested on: blackgrass (Alopecurus myosuroides); test: Test A postemergence, blackgrass; details: 0 to 100 scale (0 no effect, 100 complete control)
In short: as §1

[9] = tested on: ducksalad (Heteranthera limosa); test: Test B flooded paddy test, ducksalad; details: applied to paddy water, visual rating after 13 to 15 days, scale 0 (no effect) to 100 (complete control)
In short: (§2)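 Under a constant 3 cm flood, test compounds went directly into the paddy water. Following 13 to 15 days of greenhouse growth, treated species and controls were compared by eye.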

rice (Oryza sativa) = test: Test B flooded paddy test, rice; details: applied to paddy water, visual rating after 13 to 15 days, scale 0 (no effect) to 100 (complete control)
In short: as §2

[10] = tested on: galium (catchweed bedstraw, Galium aparine); test: Test A postemergence, galium; details: 0 to 100 scale (0 no effect, 100 complete control)
In short: as §1

[11] = tested on: barnyardgrass (Echinochloa crus-galli); test: Test B flooded paddy test, barnyardgrass; details: applied to paddy water, visual rating after 13 to 15 days, scale 0 (no effect) to 100 (complete control)
In short: as §2

[12] = tested on: pigweed (Amaranthus retroflexus); test: Test A preemergence, pigweed; details: 0 to 100 scale (0 no effect, 100 complete control)
In short: as §1

corn (Zea mays) = test: Test A postemergence, corn; details: 0 to 100 scale (0 no effect, 100 complete control)
In short: as §1

kochia (Kochia scoparia) [13] = test: Test A postemergence, kochia; details: 0 to 100 scale (0 no effect, 100 complete control)
In short: as §1

[14] = tested on: ryegrass, Italian (Lolium multiflorum); test: Test A preemergence, Italian ryegrass; details: 0 to 100 scale (0 no effect, 100 complete control)
In short: as §1

[15] = tested on: foxtail, giant (Setaria faberii); test: Test A preemergence, giant foxtail; details: 0 to 100 scale (0 no effect, 100 complete control)
In short: as §1

[16] = tested on: ragweed (common ragweed, Ambrosia elatior); test: Test A preemergence, ragweed; details: 0 to 100 scale (0 no effect, 100 complete control)
In short: as §1

[17] = tested on: ryegrass, Italian (Lolium multiflorum); test: Test A postemergence, Italian ryegrass; details: 0 to 100 scale (0 no effect, 100 complete control)
In short: as §1

[18] = tested on: sedge, umbrella (small-flower umbrella sedge, Cyperus difformis); test: Test B flooded paddy test, umbrella sedge; details: applied to paddy water, visual rating after 13 to 15 days, scale 0 (no effect) to 100 (complete control)
In short: as §2

[19] = 125 g ai/ha, visual injury, approximately 10 days
[20] = 500 g ai/ha, visual injury, approximately 10 days

O=C1NCC(c2cccc(Oc3ccccn3)c2)C1C(=O)Nc1ccccc1Cl (stereo not drawn) [Compound 69]
Plant response rating, Barnyardgrass [1, 19]: 0
Plant response rating, Barnyardgrass [1, 20]: 20
Plant response rating, Foxtail, Giant [2, 19]: 0
Plant response rating, Foxtail, Giant [2, 20]: 30
Plant response rating, Kochia (kochia (Kochia scoparia) [3]; 125 g ai/ha): 0
Plant response rating, Kochia (kochia (Kochia scoparia) [3]; 500 g ai/ha): 0
Plant response rating, Ragweed [4, 19]: 0
Plant response rating, Ragweed [4, 20]: 0
Plant response rating, Pigweed [5, 19]: 0
Plant response rating, Pigweed [5, 20]: 0
Plant response rating, Wheat [6, 19]: 0
Plant response rating, Wheat [6, 20]: 0
Plant response rating, Barnyardgrass ([7]; 125 g ai/ha): 0
Plant response rating, Barnyardgrass ([7]; 500 g ai/ha): 0
Plant response rating, Blackgrass [8, 19]: 0
Plant response rating, Blackgrass [8, 20]: 0
Plant response rating, Ducksalad (Flood) ([9]; 500 g ai/ha): 70
Plant response rating, Rice (Flood) (rice (Oryza sativa); 500 g ai/ha): 0
Plant response rating, Galium [10, 19]: 0
Plant response rating, Galium [10, 20]: 0
Plant response rating, Barnyardgrass (Flood) ([11]; 500 g ai/ha): 0
Plant response rating, Pigweed ([12]; 125 g ai/ha): 0
Plant response rating, Pigweed ([12]; 500 g ai/ha): 0
Plant response rating, Corn (corn (Zea mays); [19]): 0
Plant response rating, Corn (corn (Zea mays); [20]): 0
Plant response rating, Kochia (kochia (Kochia scoparia) [13]; [19]): 0
Plant response rating, Kochia (kochia (Kochia scoparia) [13]; [20]): 0
Plant response rating, Ryegrass, Italian ([14]; 125 g ai/ha): 0
Plant response rating, Ryegrass, Italian ([14]; 500 g ai/ha): 0
Plant response rating, Foxtail, Giant ([15]; 125 g ai/ha): 0
Plant response rating, Foxtail, Giant ([15]; 500 g ai/ha): 50
Plant response rating, Ragweed ([16]; 125 g ai/ha): 0
Plant response rating, Ragweed ([16]; 500 g ai/ha): 0
Plant response rating, Ryegrass, Italian [17, 19]: 0
Plant response rating, Ryegrass, Italian [17, 20]: 0
Plant response rating, Sedge, Umbrella (Flood) ([18]; 500 g ai/ha): 0

CN1C[C@H](c2cccc(Oc3ccc(F)cn3)c2)[C@@H](C(=O)Nc2ccc(F)c(F)c2F)C1=O [Compound 87, (3S,4S)-4-[3-[(5-fluoro-2-pyridinyl)oxy]phenyl]-1-methyl-2-oxo-N-(2,3,4-trifluorophenyl)-3-pyrrolidinecarboxamide]
Plant response rating, Barnyardgrass ([1]; 31 g ai/ha): 50
Plant response rating, Barnyardgrass [1, 19]: 80
Plant response rating, Foxtail, Giant ([2]; 31 g ai/ha): 70
Plant response rating, Foxtail, Giant [2, 19]: 80
Plant response rating, Kochia (kochia (Kochia scoparia) [3]; 31 g ai/ha): 0
Plant response rating, Kochia (kochia (Kochia scoparia) [3]; 125 g ai/ha): 60
Plant response rating, Ragweed ([4]; 31 g ai/ha): 0
Plant response rating, Ragweed [4, 19]: 0
Plant response rating, Pigweed ([5]; 31 g ai/ha): 0
Plant response rating, Pigweed [5, 19]: 70
Plant response rating, Wheat ([6]; 31 g ai/ha): 0
Plant response rating, Wheat [6, 19]: 40
Plant response rating, Barnyardgrass ([7]; 31 g ai/ha): 60
Plant response rating, Barnyardgrass ([7]; 125 g ai/ha): 90
Plant response rating, Blackgrass ([8]; 31 g ai/ha): 30
Plant response rating, Blackgrass [8, 19]: 60
Plant response rating, Ducksalad (Flood) ([9]; 250 g ai/ha): 85
Plant response rating, Rice (Flood) (rice (Oryza sativa); 250 g ai/ha): 0
Plant response rating, Galium ([10]; 31 g ai/ha): 30
Plant response rating, Galium [10, 19]: 60
Plant response rating, Barnyardgrass (Flood) ([11]; 250 g ai/ha): 60
Plant response rating, Pigweed ([12]; 31 g ai/ha): 70
Plant response rating, Pigweed ([12]; 125 g ai/ha): 70
Plant response rating, Corn (corn (Zea mays); 31 g ai/ha): 60
Plant response rating, Corn (corn (Zea mays); [19]): 90
Plant response rating, Kochia (kochia (Kochia scoparia) [13]; 31 g ai/ha): 0
Plant response rating, Kochia (kochia (Kochia scoparia) [13]; [19]): 30
Plant response rating, Ryegrass, Italian ([14]; 31 g ai/ha): 0
Plant response rating, Ryegrass, Italian ([14]; 125 g ai/ha): 80
Plant response rating, Foxtail, Giant ([15]; 31 g ai/ha): 90
Plant response rating, Foxtail, Giant ([15]; 125 g ai/ha): 90
Plant response rating, Ragweed ([16]; 31 g ai/ha): 0
Plant response rating, Ragweed ([16]; 125 g ai/ha): 0
Plant response rating, Ryegrass, Italian ([17]; 31 g ai/ha): 40
Plant response rating, Ryegrass, Italian [17, 19]: 70
Plant response rating, Sedge, Umbrella (Flood) ([18]; 250 g ai/ha): 0
